Experimental data reported in publication PMC9785441, “A Broad Spectrum Antiparasitic Activity of Organotin (IV) Derivatives and Its Untargeted Proteomic Profiling Using Leishmania donovani” (Pathogens, 2022).
pEC50, pIC50: −log10 of the molar value. Read-outs that look alike come from different tables or passages of the source.

What was measured:
[1] = system: N. fowleri (KUL strain) trophozoites; assay: N. fowleri trophozoite viability assay (CellTiter-Glo); type: cell-based, Naegleria fowleri; details: 48 h
Experimental: N. fowleri (KUL strain) was cultured in Nelson’s medium supplemented with 10% FBS and kept at 37 °C. For all experiments, trophozoites were harvested during the logarithmic phase of growth. Test compounds were serially diluted and transferred to a white solid bottomed 96-well tissue culture plate (E&K Scientific, Swedesboro, NJ, USA) followed by addition of 10,000 N. fowleri trophozoites in Nelson’s medium in a final volume of 100 µL and a final concentration of compounds ranging from 50 to 0.39 µM. Amphotericin B was used as positive control and assay plates were incubated for 48 h at 37 °C. Parasite viability was measured as described for E. histolytica and G. lamblia. EC50 values were obtained using the GraphPad Prism 9 Software.

[2] = system: T. b. brucei Lister 427 bloodstream forms; assay: T. brucei bloodstream form viability assay (SYBR Green); type: cell-based, Trypanosoma brucei; details: for pEC50: bloodstream forms, 72 h
Experimental: Bloodstream forms of T. b. brucei Lister 427 were cultured in complete HMI-9 medium in T25 suspension culture flasks (Thermo Scientific, Cat. 12-566-84) and maintained at 37 °C and 5% CO2. Trypanosomes were kept in log-phase growth and passaged every 48 h. […] Pentamidine were used as a positive control for T. brucei assay. Compounds were diluted with fresh HMI-9 medium (99 µL/well). Parasites in log-phase were suspended at 2 × 10^5 parasites/mL in HMI-9 medium and then added to each well (100 µL) to give 2 × 10^4 trypanosomes/well. Assay plates were incubated at 37 °C and 5% CO2 for 72 h. Parasite lysate was obtained by addition of 50 µL/well of lysis solution (0.012% saponin, 0.12% Triton X-100, 7.5 mM ETDA, 30 mM Tris, pH 7.5) containing 0.3 µL/mL SYBR Green I (10,000× in DMSO; Invitrogen, Carlsbad, CA, USA). Assay plates were incubated in the dark for 1 h at room temperature. Fluorescence was measured at 485 nm excitation and 535 nm emission wavelengths using an EnVision multilabel plate reader (PerkinElmer, Waltham, MA, USA). In each assay plate, parasite viability was normalized relative to positive (pentamidine) and negative (0.5% DMSO) controls in each assay plate. Assays were performed in biological and technical duplicates, and dose–response and EC50 data were generated with GraphPad Prism 9 using a sigmoidal four parameter logistic curve.

[3] = system: L. donovani intracellular amastigotes; assay: L. donovani intracellular amastigote assay in B10R cells (high content imaging); type: cell-based, Leishmania donovani
Experimental: For the intracellular amastigote stage assay, L. donovani was incubated at a density of 1 × 10^6 parasites/mL for six days at 29 °C before infection to enrich the proportion of metacyclic promastigotes. B10R monocyte cell lines were cultured in RPMI supplemented with 10% FBS and 1%penicillin/streptomycin at 37 °C in 5% CO2. After 72 h, cells were counted with a hemocytometer and mixed with the six-day-old parasites. Into 384-well assay plates, that had been pre-spotted with compounds diluted 1000-fold in DMSO, with final assay concentrations ranging from 20 µM to 0.02 µM and tested in biological triplicates., 500 B10R cells and 7000 parasites were dispensed per well in a final volume of 50 µL using a Multidrop Combi liquid dispenser (ThermoScientific, Waltham, MA, USA). Plates were incubated at 37 °C and 5% CO2 for 72 h. Cultures were then fixed with 4% formaldehyde solution for 30 min and stained with 0.5 µg/mL DAPI (diamidino-2-phenylindole). Plates were then imaged using an ImageXpress Micro XLS automated high content imager (Molecular Devices, San Jose, CA, USA) using a 10× air objective. A custom image analysis module generated in ImageXpress was used to count the nuclei of host and parasite cells. EC50 values were obtained using the GraphPad Prism 9 Software with biological triplicates.

C2C12 cells = assay: Cytotoxicity to C2C12 host cells; type: cell-based; details: mouse myoblast host cells, 72 h
Experimental: Mouse C2C12 myoblasts (ATCC CRL-1772) were cultivated in RPMI 1640 medium supplemented with 5% FBS and kept at 37 °C and 5% CO2. T. cruzi CAI-72 trypomastigotes were obtained from the supernatant of C2C12 cells infected four to seven days previously. For the assay, 500 C2C12 cells were mixed with 7500 T. cruzi parasites and seeded into 384-well plates at a 50 µL final volume. Test compounds and reference drugs (Benznidazole and K11777) were pre-spotted into the 384 well black bottom plates prior to the addition of cells and parasites with final assay concentration of 20 µM to 0.02 µM. The plates were incubated at 37 °C^, 5% CO2 for 72 h. Cultures were then fixed with 4% formaldehyde and 0.5 µg/mL DAPI (diamidino-2-phenylindole) was added for staining nucleic acids. Plates were kept protected from light for 1 h and then imaged in an ImageXpress Micro XLS automated high content imager (Molecular Devices, San Jose, CA, USA). Imaging and data analysis were performed as described for L. donovani amastigotes on biological triplicates.

[4] = system: L. donovani promastigotes; assay: L. donovani promastigote viability assay (resazurin); type: cell-based, Leishmania donovani; details: for pEC50: promastigotes, 48 h, read-out: EC50 L. donovani (pro)
Experimental: Promastigotes of L. donovani from late log phase culture were diluted to 2.0 × 10^6/mL in M-199 containing 10% FBS, 25 mM HEPES (Gibco 15630-080), 100 µM adenine, 12 mM NaHCO3, 10 µM folic acid, 1% penicillin/streptomycin (Gibco 15140-122) as described previously. Compounds and controls were transferred from compound plates to 384 well assay plates with the use of an acoustic transfer system (ATS, EDC Biosystems, Fremont, CA, USA). Promastigotes were incubated with compounds at 29 °C for 48 h. To measure parasite viability, resazurin sodium salt (7-hydroxy-3H-phenoxazin3-one 10-oxide) was dissolved in PBS and added to each well at a volume of 5 µL (final concentration of 44 µM). After incubating for 4 h at room temperature, fluorescence (ex 571 nm/em 584 nm) was recorded with an Envision (Perkin Elmer, Waltham, MA, USA) microplate fluorescence/luminescence reader. […] For positive and negative control amphotericin B and 0.5% DMSO was used, respectively. Dose response and EC50 analyses were obtained using GraphPad Prism 9 Software (Graph Pad Software Inc., San Diego, CA, USA).

[5] = in B10R cells, 72 h, read-out: EC50 L. donovani ntracelular amastigotes

pEC50 ([1]; Naegleria fowleri) | pEC50 ([3]; Leishmania donovani, range over L. donovani and T. cruzi intracellular stages and both parent compounds, read-out: EC50 values against the intracellular stages of both parasites) | SMILES | pEC50 ([2]; Trypanosoma brucei) | pEC50 [3, 5] | CC50 (C2C12 cells) | pEC50 [4] | pEC50 [1] | pEC50 [2] | pIC50 ([4]; Figure S1 dose response curves, RFU, read-out: IC50 against the promastigotes of L. donovani) | T. brucei eliminated ([2]; 5 µM) | L. donovani intracellular parasites eliminated ([3]; 5 µM)
< 5.00 | 5.37 to 5.97 | COc1ccc(NC(=O)CCC(=O)O)cc1 [MS26, 4-(4-methoxyphenylamino)-4 oxobutanoic acid] | < 5.40 | 5.97 | > 20000 nM | < 4.70 |  |  |  |  | 
 |  | CCC[CH2][Sn]([CH2]CCC)([O]C(=O)CCC(=O)Nc1ccc(OC)cc1)[O]C(=O)CCC(=O)Nc1ccc(OC)cc1 [MS26Bu2] |  | 6.55 | 140 nM | 6.12 | < 5.00 | 6.54 |  |  | 
 |  | CCC[CH2][Sn]([CH2]CCC)([CH2]CCC)[O]C(=O)CCC(=O)Nc1ccc(OC)cc1 [MS26Bu3] |  | 6.68 | 220 nM | 6.66 | 5.82 | 7.30 |  |  | 
 |  | CCC[CH2][Sn]([Cl])([Cl])[O]C(=O)CCC(=O)Nc1ccc(OC)cc1 [MS26BuSnCl2] |  | < 4.70 | 18100 nM | < 4.70 | < 5.00 | < 5.40 |  |  | 
 |  | COc1ccc(NC(=O)CCC(=O)[O][Sn]([CH]2CCCCC2)([CH]2CCCCC2)[CH]2CCCCC2)cc1 [MS26Cy3] |  |  |  |  | 5.12 | 7.10 | 6.22 |  | 
 |  | C[CH2][Sn]([CH2]C)([CH2]C)[O]C(=O)CCC(=O)Nc1ccc(OC)cc1 [MS26Et3] |  | 6.72 | 2790 nM | 6.68 | 5.85 | 7.05 |  | > 99% | > 95%
 |  | COc1ccc(NC(=O)CCC(=O)[O][Sn]([CH3])([CH3])[CH3])cc1 [MS26Me3] |  | 5.49 | 9410 nM | < 4.70 | < 5.00 | < 5.40 |  |  | 
 |  | COc1ccc(NC(=O)CCC(=O)[O-])cc1.[Na+] [MS26Na, sodium 4-(4-methoxyphenylamino)-4 oxobutanoate] |  | 5.41 | 1610 nM | 6.77 | < 5.00 | < 5.40 |  |  | 
 |  | COc1ccc(NC(=O)CCC(=O)[O][Sn]([c]2ccccc2)([c]2ccccc2)[c]2ccccc2)cc1 [MS26Ph3] |  | 5.04 | 410 nM | 6.41 | 5.49 | 7.05 |  |  | 
 |  | C=[CH][Sn]([CH]=C)([O]C(=O)CCC(=O)Nc1ccc(OC)cc1)[O]C(=O)CCC(=O)Nc1ccc(OC)cc1 [MS26vin2] |  | < 4.70 | > 20000 nM | < 4.70 | < 5.00 | < 5.40 |  |  | 
